Entries after “also recorded” stand apart in the source; their conditions may differ.
Tests used:
[1] = test system: MRL/lpr mouse spleen immune cells; assay: Cellular immune response in spleen (histology, flow cytometry); assay type: in vivo
Description: Harvested organs (kidney, spleen, and heart) to be used to assess morphometry and histochemistry were flushed with PBS, perfusion fixed in Bouin's reagent, and paraffin embedded. Sections (5 μm) were stained with Hematoxylin and Eosin (H&E), Periodic acid—Schiff stain (PAS), Masson-Trichrome, or reticulin staining at the Harvard Medical School Rodent Histopathology Core and scored using an unbiased approach, in which histology scores of 1 (normal) to 5 (most severe pathology) were designated to tissue sections which were only numerically labeled and in no particular order (by Dr. Roderick Bronson, director of the Rodent Histopathology Core, Harvard Medical School). Numerical sections were later decoded, marked for their designated score, and statistically analyzed. Images of the tissue sections were obtained and quantified on a Keyence BZ-9000 Microscope (Keyence Corporation, Itasca, Ill.).
Spleens were cut into 2 to 3 pieces each and homogenized on a 70 μm nylon mesh in 5 ml of HBSS buffer. The cells were filtered through a 70 μm nylon mesh to a new 50 ml tube and centrifuged at 2000 rpm for 5 minutes at room temperature. […]
To identify immune cell subsets, isolated cells from tissues were immunostained with mouse antibodies targeted against CD3E (145-2C11, BioLegend, San Diego, Calif.), CD4 (GK1.5, BioLegend), CD8 (53-6.7, eBioscience, San Diego, Calif.), CD45 (30-F11, eBioscience), CD 19 (6125, BioLegend), CD11b (M1170, BioLegend), TCRαβ (H57-597, BioLegend), CD44 (IM7, BioLegend), B220 (RA3-6B2, B.D. […], BD Biosciences, San Jose Calif.), CD138 (281-2, BioLegend), CD38 (CD28.2, BioLegend), Gr-1 (RB6.805, eBioscience), CD62L (DREG-56, BioLegend), and CD25 (PC61, BioLegend) for 30 minutes at 4° C. Samples were acquired on a LSR II flow cytometer (BD Biosciences) and the percentage of each sub-population of cells (B, T, monocytes, macrophage and neutrophils) was assessed by FlowJo [version 7.2.2 (Tree Star)]. Total cell numbers were counted using a hemocytometer. Absolute cell numbers for each sub-population were calculated based on the percentage of each population. […]

[2] = test system: T cells isolated from the spleen of SLE-prone mice; assay: Proliferation and viability of cultured mouse T cells; assay type: cell-based
Procedure: Whole tissue cell cultures prepared from mouse spleen and axillary lymph nodes were generated as described above. From within this total cell preparation, total T cells from spleen and the double negative T cells from axillary lymph nodes were further purified through negative selection using a pan T cell isolation kit from Milenyi Biotec (San Diego, Calif.). […] Next, 20 μl of anti-biotin beads were added per 1×10^7 cells and the reaction was kept on ice for another 30 minutes. After centrifuging at 2000 rpm for 5 minutes at 4° C., the pellet was resuspended in 2 ml of T cell isolation buffer (D-PBS, pH7.2, 0.5% FBS and 2 mM EDTA) and the T cells were purified through a magnetic sorting column (MACS).
The purity of isolated T cells routinely exceeded 94%. After purification, T cells were resuspended in RPMI1640 medium with 10% FBS and 1×10^5 cells/well in 100 ul total volume was loaded onto a 96-well plate, either left uncoated or precoated with anti-CD3 antibody (1 ug/ml) (OKT3; Biolegend). All cells loaded onto wells precoated with anti-CD3 antibody were also mixed with anti-CD28 antibody (0.5 μg/ml) (CD28.2; BioLegend) to help potentiate the T cell signaling response. Plated cells were cultured for 48 hours in either the presence of vehicle (DMSO) or Shp2 inhibitor (10 μg/ml). Following the incubation, 15 μl of medium was collected for various cytokine activity analyses.
For cell viability, an MTT (thiazolyl Blue tetrazolium Bromide, M2128, Sigma, St. Louis, Mo.) assay was employed. Briefly, 10 μl of the MTT labeling reagent (final concentration 0.5 mg/ml) was loaded into each cell culture well (96-well plate) and then incubated for 4 hours in a humidified chamber. Following incubation, 100 μl of solubilization solution (0.04N in absolute isopropanol) was added to each well, resuspended, and then incubated at 37° C. for an additional hour. Spectrophotometric absorbance of the samples was assessed using a microplate reader at a wavelength of 595 nm. T cell numbers/proliferation was assessed by cell count using a hemocytometer. In brief, 1×10^5 cells were plated in wells and cultured for 48 hours. 10 μl of cell suspension was then removed and mixed together with 10 μl of trypan blue solution (0.4%, T8154, Sigma). After mixing, 10 μl of the mixture was loaded onto the hemocytometer and the total average number of cells/well was calculated.
Moreover, the proliferative effects observed were specific to the double-negative T cell population (FIG. 20A).

[3] = test system: serum IgG and anti dsDNA IgG; assay: Serum IgG and anti-dsDNA IgG ELISA; assay type: in vivo, mouse; settings: SLE mice serum
Description: ELISA assays were used to detect for the presence of various cytokines in mouse serum isolated from vehicle or drug-treated animals or from medium supernatant isolated from tissue cell cultures as described above. In addition, ELISA was also used to detect total IgG and dsDNA IgG from mouse serum and for the assay to detect urine albumin and creatinine levels. ELISA detection kits for mouse cytokines IL-6 and TNFα were purchased from eBioscience, mouse cytokines IL-17A, IFNγ, and human IFNγ were purchased from Biolegend, kits for the albumin and creatinine were purchased from Exocell, and kits for the serum IgG and anti-dsDNA IgG were purchased from Alpha Diagnostic (San Antonio, Tex.). ELISAs were all performed according to the manufacturer's instructions.
Serum IgG and anti-dsDNA IgG: 100 μl of 1:50000× diluted serum for IgG and 100 μl of 1:20000× diluted serum for dsDNA IgG were used and loaded onto a precoated 96-well plate in duplicate for 1 hour at room temperature. […] The OD of the wells was determined using a microplate reader set at a wavelength of 450 nm.
In this Example, the effect of the SHP2 inhibitor, L97M74, on the onset of SLE disease progression was evaluated by measuring the levels of auto antibodies in SLE inhibitor-treated versus vehicle-treated mice through detection anti-histone antibodies and anti-IgG by ELISA.

Question: How did the “overall splenic T cell counts” value ([1]; MRL/lpr mice) turn out when Cn1c(-c2cccc(NC(=O)C(=O)Nc3ccc(-c4ccsc4)cc3)c2)c(I)c2cc(C(=O)O)c(O)cc21 [11a-1] was run?
Answer: overall splenic T cell counts were reduced

Question: What about the “splenic CD4, CD8 and double-negative T cells” value ([1]; MRL/lpr mice) of the same compound?
Answer: significant reduction in CD4, CD8, and double-negative T cells

Question: What about the “germinal center formation in the spleen” value ([1]; MRL/lpr mice vs vehicle) of the same compound?
Answer: greatly reduced

Question: What about the “total number / proliferation of double-negative T cells” value ([2]; MRL/lpr, CD3 activation, 48 hours culture, listed as SHP2 inhibitor) of the same compound?
Answer: decreased the total number of double-negative T cells; also recorded: decreases proliferation

Question: And the “viability of tissue-cultured double-negative T cells” value ([2]; MTT, absence or presence of CD3 ab, listed as SHP2 inhibitor)?
Answer: did not affect viability; also recorded: does not affect viability

Question: And the “total T cell viability” value ([2]; MTT, absence or presence of CD3 antibody)?
Answer: no effect on total T cell viability

Question: What about the “inactive and CD3 activated T cell proliferation” value ([2]; SLE mouse splenic T cells, 48 hours culture) of the same compound?
Answer: significantly inhibited

Question: And the “effects in WT or MRL/MpJ control cells” value ([2]; presence or absence of stimulation)?
Answer: No effects were observed

Question: And the “levels of IgG” value [3]?
Answer: not reduced

Question: What about the “levels of double-stranded DNA (anti dsDNA IgG)” value [3] of the same compound?
Answer: not reduced

Source: patent US9844535B2, “SHP2 inhibitors and methods of treating autoimmune and/or glomerulonephritis-associated diseases using SHP2 inhibitors” (Indiana University Research and Technology Corporation, priority 2013, dated 2017)
